{"source": "ChEMBL document CHEMBL6103584", "about": "“Hit to lead optimization of the 4-trifluoromethylquinoline derivatives as novel SGK1 inhibitors with potent anti-prostate cancer activity” (Eur J Med Chem, 2025)", "key": {"PC-3 [1]": {"tested_on": "PC-3", "experiment": "Anti-tumor activity against human PC-3 cells xenografted in BALB/c nude mouse assessed as cell degeneration at 0.5 to 2 mg/kg, ip measured for 14 days by H and E staining based analysis", "assay_type": "functional, organism-based", "conditions": "dose 0.5-2 mg/kg, time 14.0 day"}, "[2]": {"experiment": "Toxicity in BALB/c nude mouse xenografted with human PC-3 cells assessed as toxic effect on kidney at 0.5 to 2 mg/kg, ip measured for 14 days by H and E staining based analysis", "assay_type": "organism-based", "conditions": "in vivo, 336 h, dose 0.5-2 mg/kg, time 14 day"}, "[3]": {"molecular_target": "T1, Serine/threonine-protein kinase Sgk1 (Homo sapiens) (UniProt O00141)", "T1 sequence (whole entry)": "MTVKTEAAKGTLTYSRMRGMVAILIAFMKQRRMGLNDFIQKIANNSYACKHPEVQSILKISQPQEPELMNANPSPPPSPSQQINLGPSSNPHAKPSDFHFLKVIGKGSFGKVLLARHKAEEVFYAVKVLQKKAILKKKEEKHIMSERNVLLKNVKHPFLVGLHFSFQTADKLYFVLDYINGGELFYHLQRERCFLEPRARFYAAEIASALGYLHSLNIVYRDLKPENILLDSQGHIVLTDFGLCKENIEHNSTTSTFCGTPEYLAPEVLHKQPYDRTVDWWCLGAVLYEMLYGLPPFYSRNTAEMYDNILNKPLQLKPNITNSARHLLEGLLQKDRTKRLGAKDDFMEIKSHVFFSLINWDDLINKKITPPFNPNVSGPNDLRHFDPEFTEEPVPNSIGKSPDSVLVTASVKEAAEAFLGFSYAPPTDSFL", "experiment": "Inhibition of N-terminal GST-tagged truncated human SGK1 (61 to 431 residues) extracted from Sf21 cells at 10 uM preincubated for 10 mins followed by substrate/ATP addition measured after 50 mins by fluorescence based analysis relative to control", "assay_type": "cell-free", "conditions": "time 60.0 min"}, "[4]": {"experiment": "Toxicity in BALB/c nude mouse xenografted with human PC-3 cells assessed as pulmonary bullae formation in lung tissue at 0.5 to 2 mg/kg, ip measured for 14 days by H and E staining based analysis", "assay_type": "organism-based", "conditions": "in vivo, 336 h, dose 0.5-2 mg/kg, time 14 day"}, "[5]": {"molecular_target": "T1, Serine/threonine-protein kinase Sgk1 (Homo sapiens)", "experiment": "Inhibition of SGK1 in human PC-3 cells assessed as decrease in GSK3-beta phosphorylation at Ser9 incubated for 48 hrs by Western blot analysis", "assay_type": "cell-based", "conditions": "dose 0.05-2 µM"}, "Homo sapiens": {"species_on_record": "Homo sapiens", "experiment": "Selectivity index, ratio of IC50 for inhibition of N-terminal GST-tagged truncated human SGK3 (119 to 496 residues) extracted from Sf21 cells to IC50 for inhibition of N-terminal GST-tagged truncated human SGK1 (61 to 431 residues) extracted from Sf21 cells"}, "[6]": {"experiment": "Toxicity in BALB/c nude mouse xenografted with human PC-3 cells assessed as rupture of alveolar epithelial cells in lung tissue at 0.5 to 2 mg/kg, ip measured for 14 days by H and E staining based analysis", "assay_type": "organism-based", "conditions": "in vivo, 336 h, dose 0.5-2 mg/kg, time 14 day"}, "[7]": {"molecular_target": "T1, Serine/threonine-protein kinase Sgk1 (Homo sapiens)", "experiment": "Inhibition of SGK1 in human PC-3 cells assessed as decrease in NDRG1 phosphorylation at Thr346 at 0.5 uM by Western blot analysis", "assay_type": "cell-based", "conditions": "time <= 48.0 hrs"}, "[8]": {"molecular_target": "T1, Serine/threonine-protein kinase Sgk1 (Homo sapiens)", "experiment": "Inhibition of SGK1 phosphorylation at Ser78 in human PC-3 cells at 0.5 uM by Western blot analysis", "assay_type": "cell-based", "conditions": "time <= 48.0 hrs"}, "[9]": {"experiment": "Toxicity in BALB/c nude mouse xenografted with human PC-3 cells assessed as toxic effect on heart at 0.5 to 2 mg/kg, ip measured for 14 days by H and E staining based analysis", "assay_type": "organism-based", "conditions": "in vivo, 336 h, dose 0.5-2 mg/kg, time 14 day"}, "PC-3 [10]": {"tested_on": "PC-3", "experiment": "Anti-tumor activity against human PC-3 cells xenografted in BALB/c nude mouse at 0.5 to 2 mg/kg, ip measured for 14 days", "assay_type": "functional, organism-based", "conditions": "dose 0.5-2 mg/kg, time 14.0 day"}, "[11]": {"molecular_target": "T1, Serine/threonine-protein kinase Sgk1 (Homo sapiens)", "experiment": "Inhibition of SGK1 in human PC-3 cells assessed as decrease in MDM2 phosphorylation at Ser166 at 0.5 uM by Western blot analysis", "assay_type": "cell-based", "conditions": "time <= 48.0 hrs"}, "[12]": {"experiment": "Toxicity in BALB/c nude mouse xenografted with human PC-3 cells assessed as ballooning degeneration in liver tissue at 0.5 to 2 mg/kg, ip measured for 14 days by H and E staining based analysis", "assay_type": "organism-based", "conditions": "in vivo, 336 h, dose 0.5-2 mg/kg, time 14 day"}, "[13]": {"molecular_target": "T1, Serine/threonine-protein kinase Sgk1 (Homo sapiens)", "experiment": "Binding affinity to SGK1 in human PC-3 cells assessed as thermal stability at 0.01 to 10 uM incubated for 2 hrs followed by heat exposure at 53 degreeC for 3 mins by CETSA", "assay_type": "cell-based", "conditions": "dose 0.01-10 µM"}, "PC-3 [14]": {"tested_on": "PC-3", "experiment": "Anti-tumor activity against human PC-3 cells xenografted in BALB/c nude mouse assessed as uniform cell distribution at 0.5 to 2 mg/kg, ip measured for 14 days by H and E staining based analysis", "assay_type": "functional, organism-based", "conditions": "dose 0.5-2 mg/kg, time 14.0 day"}, "[15]": {"experiment": "Toxicity in BALB/c nude mouse xenografted with human PC-3 cells assessed as change in liver weight at 0.5 to 2 mg/kg, ip measured for 14 days by H and E staining based analysis", "assay_type": "organism-based", "conditions": "in vivo, 336 h, dose 0.5-2 mg/kg, time 14 day"}, "[16]": {"experiment": "Toxicity in BALB/c nude mouse xenografted with human PC-3 cells assessed as toxic effect on spleen at 0.5 to 2 mg/kg, ip measured for 14 days by H and E staining based analysis", "assay_type": "organism-based", "conditions": "in vivo, 336 h, dose 0.5-2 mg/kg, time 14 day"}, "PC-3 [17]": {"tested_on": "PC-3", "experiment": "Anti-tumor activity against human PC-3 cells xenografted in BALB/c nude mouse assessed as cell necrosis at 0.5 to 2 mg/kg, ip measured for 14 days by H and E staining based analysis", "assay_type": "functional, organism-based", "conditions": "dose 0.5-2 mg/kg, time 14.0 day"}, "PC-3 [18]": {"tested_on": "PC-3", "experiment": "Anti-tumor activity against human PC-3 cells xenografted in BALB/c nude mouse assessed as relaxation of cell organisation at 0.5 to 2 mg/kg, ip measured for 14 days by H and E staining based analysis", "assay_type": "functional, organism-based", "conditions": "dose 0.5-2 mg/kg, time 14.0 day"}, "[19]": {"experiment": "Toxicity in BALB/c nude mouse xenografted with human PC-3 cells assessed as hepatocyte swelling in liver tissue at 0.5 to 2 mg/kg, ip measured for 14 days by H and E staining based analysis", "assay_type": "organism-based", "conditions": "in vivo, 336 h, dose 0.5-2 mg/kg, time 14 day"}, "[20]": {"experiment": "Toxicity in BALB/c nude mouse xenografted with human PC-3 cells assessed as change in kidney weight at 0.5 to 2 mg/kg, ip measured for 14 days by H and E staining based analysis", "assay_type": "organism-based", "conditions": "in vivo, 336 h, dose 0.5-2 mg/kg, time 14 day"}, "[21]": {"molecular_target": "T1, Serine/threonine-protein kinase Sgk1 (Homo sapiens)", "experiment": "Inhibition of SGK1 in human PC-3 cells assessed as decrease in NDRG1 phosphorylation at Thr346 incubated for 48 hrs by Western blot analysis", "assay_type": "cell-based", "conditions": "dose 0.05-2 µM"}, "[22]": {"experiment": "Toxicity in BALB/c nude mouse xenografted with human PC-3 cells assessed as nuclear fragmentation in kidney tissue at 0.5 to 2 mg/kg, ip measured for 14 days by H and E staining based analysis", "assay_type": "organism-based", "conditions": "in vivo, 336 h, dose 0.5-2 mg/kg, time 14 day"}, "PC-3 [23]": {"tested_on": "PC-3", "experiment": "Anti-tumor activity against human PC-3 cells xenografted in BALB/c nude mouse assessed as reduction in tumor weight at 0.5 to 2 mg/kg, ip measured for 14 days", "assay_type": "functional, organism-based", "conditions": "dose 0.5-2 mg/kg, time 14.0 day"}, "[24]": {"experiment": "Toxicity in BALB/c nude mouse xenografted with human PC-3 cells assessed as interstitial vascular congestion in lung tissue at 0.5 to 2 mg/kg, ip measured for 14 days by H and E staining based analysis", "assay_type": "organism-based", "conditions": "in vivo, 336 h, dose 0.5-2 mg/kg, time 14 day"}, "[25]": {"experiment": "Toxicity in BALB/c nude mouse xenografted with human PC-3 cells assessed as toxic effect on lung at 0.5 to 2 mg/kg, ip measured for 14 days by H and E staining based analysis", "assay_type": "organism-based", "conditions": "in vivo, 336 h, dose 0.5-2 mg/kg, time 14 day"}, "[26]": {"experiment": "Toxicity in BALB/c nude mouse xenografted with human PC-3 cells assessed as interstitial edema in renal tubules in kidney tissue at 0.5 to 2 mg/kg, ip measured for 14 days by H and E staining based analysis", "assay_type": "organism-based", "conditions": "in vivo, 336 h, dose 0.5-2 mg/kg, time 14 day"}}, "note": "Calls of active or inactive are those of the source. The calls are words filed in the database; no cut-off is given here.", "data": [{"smiles": "COc1ccc(NC(=O)c2cc3c(C(F)(F)F)cc(Nc4ccc(N5CCNCC5)cc4OC)nc3cc2OC)cc1", "values": [{"measurement": "Activity", "setting": "PC-3 [1]", "result": "Active"}, {"measurement": "Activity", "setting": "[2]", "result": "Non-toxic"}, {"measurement": "inhibition", "setting": "[3]", "result": 95.3, "unit": "%"}, {"measurement": "Activity", "setting": "[4]", "result": "Non-toxic"}, {"measurement": "inhibition", "setting": "[5]", "result": "Dose-dependent-effect"}, {"measurement": "Ratio IC50", "setting": "Homo sapiens", "result": 5}, {"measurement": "Activity", "setting": "[6]", "result": "Non-toxic"}, {"measurement": "inhibition", "setting": "[7]", "result": "Time-dependent-effect"}, {"measurement": "inhibition", "setting": "[8]", "result": "Time-dependent-effect"}, {"measurement": "Activity", "setting": "[9]", "result": "Non-toxic"}, {"measurement": "Activity", "setting": "PC-3 [10]", "result": "Active"}, {"measurement": "inhibition", "setting": "[11]", "result": "Time-dependent-effect"}, {"measurement": "Activity", "setting": "[12]", "result": "Non-toxic"}, {"measurement": "Activity", "setting": "[13]", "result": "Active"}, {"measurement": "Activity", "setting": "PC-3 [14]", "result": "Active"}, {"measurement": "Activity", "setting": "[15]", "result": "Non-toxic"}, {"measurement": "Activity", "setting": "[16]", "result": "Non-toxic"}, {"measurement": "Activity", "setting": "PC-3 [17]", "result": "Active"}, {"measurement": "Activity", "setting": "PC-3 [18]", "result": "Active"}, {"measurement": "Activity", "setting": "[19]", "result": "Non-toxic"}, {"measurement": "Activity", "setting": "[20]", "result": "Non-toxic"}, {"measurement": "inhibition", "setting": "[21]", "result": "Dose-dependent-effect"}, {"measurement": "Activity", "setting": "[22]", "result": "Non-toxic"}, {"measurement": "Activity", "setting": "PC-3 [23]", "result": "Active"}, {"measurement": "Activity", "setting": "[24]", "result": "Non-toxic"}, {"measurement": "Activity", "setting": "[25]", "result": "Non-toxic"}, {"measurement": "Activity", "setting": "[26]", "result": "Non-toxic"}]}]}
